The test system of series [1] is bovine cultured trabecular meshwork cells. The series is described as follows: Effects on morphology of trabecular meshwork cells (change in cell area by image analysis). The format is cell-based. To be noted: Bos taurus, 3 h, 37° C., three hours, read-out: EC50 (concentration required to reduce the cell area of the trabecular meshwork cells by 50%). An excerpt:
A possibility has been reported that drugs having effects of increasing aqueous humor outflow can be found by evaluating effects of drugs on morphology of cultured trabecular meshwork cells (Invest. Ophthalmol. Vis. Sci., 33, 2631-2640 (1992)). Accordingly, effects of the present compounds on morphology of bovine cultured trabecular meshwork cells were studied in the similar manner to the method described in the above-mentioned literature. Experimental Method Morphological changes in bovine cultured trabecular meshwork cells by adding the present compounds were quantitatively evaluated by image analysis. […] Bovine trabecular meshwork cells (passage number 1 to 5) cultured in a basal medium for mammalian cell culture d-MEM (Dulbecco's Modified Eagle Medium, manufactured by Gibco Co., Ltd.) containing fetal bovine serum (10%), amphotericin B (2.5 μg/ml) and gentamicin (50 μg/ml) were treated with a trypsin-EDTA solution (0.05% trypsin, 0.53 mM EDTA·4 Na) 24 hours before the later drug treatment and seeded in a 24-well plate (10^4 cells/well). Twelve hours before the later drug treatment, the cells were washed with phosphate-buffered physiological saline, and then the medium was replaced by D-MEM containing amphotericin B (2.5 μg/ml) and gentamicin (50 μg/ml) (hereinafter referred to as "medium A"). […] A test compound was dissolved in dimethyl sulfoxide (DMSO), and the medium A was added to the solution, followed by sterilizing the solution by filtration. The medium A was further added to the solution to dilute it at a prescribed concentration. This diluted solution was maintained isothermally under a 5% carbon dioxide gas atmosphere at 37° C. for one hour, from one hour before the later drug treatment to prepare a test compound solution. Method of Measurement First, cells were photographed using a well-scanner one hour before the drug treatment. Next, the medium of the cells was replaced by the test compound solution, and the cells were treated with the drug and incubated under a 5% carbon dioxide gas atmosphere at 37° C. for three hours. Then, the same cells as those photographed one hour before the drug treatment were photographed using the well-scanner. Image Analysis Photographed cell images were incorporated from the photographs into an image analysis system with a CCD camera (manufactured by […] Co., Ltd.). Outlines of the incorporated cell images were traced, and areas were measured. Degrees of the morphological changes made by the test compounds on the trabecular meshwork cells are expressed by the following rates of changes in areas (%).

Series [2] relates to cynomolgus monkeys (intraocular pressure). Briefly: Intraocular pressure-lowering effects by anterior chamber administration. The settings on record: 10 μl of 10^-3 M, 1% DMSO into anterior chamber, vehicle in other eye. The format is in vivo, cynomolgus monkey.
Protocol: Healthy male cynomolgus monkeys weighing 4.0 to 7.0 kg and being four to seven years old were used as experimental animals.
A test compound to be used was dissolved in dimethyl sulfoxide (DMSO), and then phosphate-buffered physiological saline was added to the solution to dilute it at a prescribed concentration (10^-3 M, 1% DMSO), followed by sterilizing the solution by filtration to prepare a test compound solution.
Only vehicle was administered into the other eye.
The intraocular pressure was measured with an applanation tonometer immediately before and prescribed periods after administering the test compound. […]
IOP(D-t): Intraocular pressure of the eye into which the test compound was administered, measured (t) hours after administering the test compound
IOP(D-0): Intraocular pressure of the eye into which the test compound was administered, measured immediately before administering the test compound
IOP(V-t): Intraocular pressure of the eye into which the vehicle was administered, measured (t) hours after administering the vehicle
IOP(V-0): Intraocular pressure of the eye into which the vehicle was administered, measured immediately before administering the vehicle
For series [3], the system named is laser-induced high intraocular pressure monkey models (intraocular pressure). Briefly: Intraocular pressure-lowering effects by instillation using laser-induced high intraocular pressure animal models. The settings on record: for Intraocular pressure change difference: 0.3% solution instilled twice a day, six hours after morning instillation, vs vehicle, average of five eyes. The series is classed as in vivo, cynomolgus monkey. An excerpt: A method of evaluating intraocular pressure-lowering effects of the drugs by instilling them into laser-induced high intraocular pressure monkey models has been reported (Arch. Opththalmol., 105, 249-252 (1987)). Accordingly, intraocular pressure-lowering effects by instilling the present compound were studied in the similar manner to the method described in the above-mentioned literature.
Male cynomolgus monkeys weighing 5 to 6 kg were used for experiment. Five eyes of four monkeys of which intraocular pressure had been elevated by irradiating trabecular meshwork of the monkeys at 100 to 150 spots every one week with an argon laser (Coherent Radiation, Models 800) were used. Laser irradiation conditions were set at 1000 mW and 0.2 sec.
Preparation of Test Compound Solution
A test compound was dissolved in purified water, then concentrated glycerin and sodium chloride were added to the solution to adjust osmotic pressure to 1, and 0.1 M aqueous sodium hydroxide solution was added thereto to adjust pH to 7.4 and to prepare a 0.3% solution. Then, the solution was sterilized by filtration to prepare a test compound solution.
Method of Administering Drugs
First, in order to study effects of a vehicle on intraocular pressure, only vehicle was instilled twice a day (at 10 a.m. and 5 p.m.) for one week continuously. Then, the test compound solution was instilled twice a day (at 10 a.m. and 5 p.m.) for one week continuously.
Intraocular pressure was measured with an applanation tonometer before administering the drug and a prescribed period after the instillation. Chlorpromazine (1 mg/kg) was administered intramuscularly to the cynomolgus monkey one hour before the measurement to sedate the monkey, one drop of a 0.4% oxybuprocaine hydrochloride eyedrops, which is a local anesthetic, was instilled into the monkey, and then the intraocular pressure was measured.
Intraocular pressure change difference (mmHg)=[IOP(D-6)-IOP(D-0)]-[IOP(V-6)-IOP(V-0)]
IOP(D-6): Intraocular pressure measured six hours after the morning instillation of the test compound solution
IOP(D-0): Intraocular pressure measured before administering the test compound solution
IOP(V-6): Intraocular pressure measured six hours after the morning instillation of the vehicle
IOP(V-0): Intraocular pressure measured before administering the vehicle

The subject of series [4] is trabecular meshwork cells. To be noted: Japanese Examined Patent Publication No. 13013/1995; cited from earlier work.

`C=C(C(=O)c1ccc(/C=C/C(=O)O)cc1)c1ccccc1` [Compound No. 8-7, 4-(2-Phenylacryloyl)cinnamic acid]: the EC50 in series [1] came to 810 nM. Further, the “Maximum intraocular pressure-lowering value” in series [2] (average value of six samples) came out at 7.0 mmHg. For the same compound, the “Intraocular pressure change difference” value in series [3] (1st day) is given as “+5.8 mmHg”; in series [3] (2nd day), -7.6 mmHg; in series [3] (3rd day) it was -6.6 mmHg; in series [3] (4th day) it was -1.2 mmHg; in series [3] (5th day), -6.6 mmHg; in series [3] (6th day) it was -8.6 mmHg. In addition, in series [3] (7th day), the “Intraocular pressure change difference” value was -2.8 mmHg. For the same compound, the “intraocular pressure-lowering effect (in words)” value in series [3] (instillation, 0.3% solution twice a day for one week) is “excellent intraocular pressure-lowering effect”. Besides, the “disorder in an anterior segment of the eye” value in series [3] (throughout all instillation periods, 0.3% solution twice a day for one week) was “No disorder was recognized in an anterior segment of the eye”.
In the case of `C=C(C(=O)c1ccc(/C=C(\C)C(=O)O)cc1)c1ccccc1` [Compound No. 8-9, α-Methyl-4-(2-phenylacryloyl)cinnamic acid], in series [1], the EC50 was determined as 3900 nM.
As to `C=C(CC)C(=O)c1ccc(OCC(=O)O)c(Cl)c1Cl` [Ethacrynic acid, reference compound], the EC50 in series [1] turned out to be 62000 nM. The “Maximum intraocular pressure-lowering value” in series [2] (average value of five samples) is 2.0 mmHg. Besides, the “effect on intraocular pressure and trabecular meshwork cells reported in the literature” value in series [4] is “lowering intraocular pressure by making a morphological change in trabecular meshwork cells and increasing the rate of aqueous humor outflow”.
In the case of `C=C(C(=O)c1ccc(/C(C)=C/C(=O)O)cc1)c1ccccc1` [Compound No. 8-10, β-Methyl-4-(2-phenylacryloyl)cinnamic acid], the EC50 in series [1] is 2900 nM.
With `C=C(C(=O)c1ccc(/C=C/C(=O)O)cc1)c1ccc([N+](=O)[O-])cc1` [Compound No. 8-2, 4-[2-(4-Nitrophenyl)acryloyl]cinnamic acid], the EC50 in series [1] was found to be 1700 nM.
Take `C=C(C(=O)c1ccc(/C=C/C(=O)O)cc1)c1c(F)c(F)c(F)c(F)c1F` [Compound No. 8-1, 4-[2-(2,3,4,5,6-Pentafluorophenyl)acryloyl]cinnamic acid]: the EC50 in series [1] came to 660 nM.
